According to a melting point compilation (Tetko et al.; mined from patent text by program, amines drawn as free bases though some values may be those of a salt):

Row | Structure (SMILES) | melting point [°C]
1 | CCc1[nH]n(C2CCCC2)c2nc(Cc3ccc([N+](=O)[O-])cc3)nc(=O)c1-2 | 221 to 223
2 | CN1C(=O)C(F)N=C(c2ccccc2F)c2cc(Br)ccc21 (centres undefined) | 127 to 130
3 | NCCc1ccc(C(N)=O)cc1 | 132 to 133
4 | O=C(O)[C@H]1C=C[C@@H](c2ccc([N+](=O)[O-])cc2)n2c(=O)n(CCCl)c(=O)n21 (relative stereo) | 192 to 194
5 | COC(=O)c1ccc(CC(=O)c2ccccc2Cl)cc1 | 40 to 42
6 | N#Cc1ccc(NC(=S)Nc2ncccc2OCc2ccccc2)cc1 | 163 to 165
7 | CC(C)n1nc(-c2cc(C(N)=O)c(N)nc2-c2ccccc2)ccc1=O | > 250
8 | Cc1nnc(-c2ccnc(NC(=O)NCc3ccccn3)c2)o1 | 202 to 203
9 | Cc1ccccc1NO | 38 to 39
10 | Nc1cc(SC(F)(F)F)cc(Br)c1N | 60 to 61
11 | Clc1ccc(-c2nccs2)cc1 | 169 to 170
12 | CC(=O)NCCNc1nc(Nc2ccc(Cl)cc2)ncc1[N+](=O)[O-] | 224 to 226
13 | OCc1conc1-c1ccc(C(F)(F)F)cc1 | 70 to 71
14 | CCCCn1c(=O)cc(O)c2ccccc21 | 211 to 213
15 | O=C(O)[C@H]1CCC(=O)[C@@H](n2nc(-c3c(-c4ccccc4)nn4ccccc34)ccc2=O)C1 (relative stereo) | 155 to 165
16 | CCCOc1ccc(S(=O)(=O)N2CCCC(C(=O)OCC)C2)cc1-c1nc2cc(Cl)c([N+](=O)[O-])cc2c(=O)[nH]1 (centres undefined) | 196 to 197
17 | CC(=O)Nc1ncc(C=O)s1 | 235 to 236
18 | O=C(Cc1c(-c2ccccc2)nn(-c2ccccc2)c1-c1ccccc1)Oc1ccccc1C(=O)O | 190 to 191
19 | CCC(C)c1cccc(C(C)CC)c1C(=O)O (centres undefined) | 125 to 126
20 | COc1ccc(C=C2C(=O)c3cc(O)ccc3OC2c2ccc(OC)cc2)cc1 (centres undefined) | 199 to 201
21 | Cc1cccc(COc2cccc(OCc3coc(C4CCCCC4)n3)c2)c1C(=O)O | 158 to 159
22 | COc1ccc2c(c1)C(=O)Cc1c(C#N)cccc1S2 | 186 to 187
23 | Cc1ccc(CCN2CCN(c3noc4ccccc34)CC2)c2c1C(C)(C)CCN2 | 135
24 | CC1CC(=O)NN=C1c1ccc(N2CCN(Cc3ccccc3)CC2)c([N+](=O)[O-])c1 (centres undefined) | 220 to 221
25 | O=[N+]([O-])c1ccc(N=Nc2ccc(N(CC3CO3)CC3CO3)cc2)cc1 (centres undefined) | 135 to 136

Row | Structure (SMILES) | melting point [°C]
26 | Nc1ccc(C(=O)c2ccccc2)c(Br)c1 | 157 to 160
27 | O=C1CC(c2cccc(-n3cncn3)c2)=Nc2ccc(C#Cc3ccc(F)cc3)cc2N1 | 217 to 218
28 | Cc1nc(NC(=O)c2cccc(S(C)(=O)=O)c2)sc1C(=O)NCc1ccccc1 | 111 to 113
29 | CC(C(=O)O)n1c(-c2ccc(Cl)cc2)nc2cccnc21 (centres undefined) | 226 to 229
30 | O=C(c1cccs1)c1cccn1N1C(=O)c2ccccc2C1=O | 165 to 166
31 | Cn1ccc2c1CCn1ncnc1C2=C1CCNCC1 | 183
32 | CCc1nc(/C=C/c2cn(-c3ccccc3C)nc2O)cs1 | 174 to 176
33 | CCCC(=O)c1cnn(C)c1S(N)(=O)=O | 97 to 99
34 | CC(=O)C(=CS(=O)(=O)N(C)C)c1cccc([N+](=O)[O-])c1 | 115 to 120
35 | CCOC(=O)c1cc(Oc2cc(Cl)c(Cl)cc2Cl)ccc1[N+](=O)[O-] | 99 to 102
36 | CC(=O)NNc1ccc(-n2c(-c3ccccc3)csc2=S)cc1 | 230 to 232
37 | CCc1cc(C#N)cc2c(NCc3ccc(OC)c(Cl)c3)c(CO)cnc12 | 188 to 189
38 | CC(=O)Nc1cc(O)ccc1/C=C/c1ccc(O)cc1 | 227 to 229
39 | CNC(=O)c1ccc(-c2coc3ccc(-c4nnc(C)o4)cc23)c(Cl)c1 | 250 to 251
40 | CNC(=O)C(=NOC)c1ccccc1COc1ncc(Sc2ccccc2)cc1Cl | 84 to 86
41 | COc1cc2c(Nc3ccc(Cl)cc3F)ncnc2cc1OCCOc1ccncc1 | 200 to 202
42 | O=C1NS(=O)(=O)c2cc(O)cc(O)c21 | 286
43 | N#Cc1ccc(C(N)=O)s1 | 222 to 223
44 | CCCCn1nc2c(N)nc3ccccc3c2c1CC | 215 to 216
45 | Cc1nc(Sc2cccc(C(=O)O)n2)sc1CC(=O)O | 211 to 213
46 | Cc1c(OCc2nnn[nH]2)cc2c(c1Cl)C(=O)C1(CCCC1)C2=O | 211
47 | Cc1c(CCl)ncn1C(c1ccccc1)(c1ccccc1)c1ccccc1 | 133 to 135
48 | O=C(CC1CCCCC1=O)c1ccc(-c2ccccc2)cc1 (centres undefined) | 108 to 112
49 | CCOC(=O)C(=O)Nc1cc(Cl)c(Cl)cc1[N+](=O)[O-] | 96 to 97
50 | CCc1noc(-c2cn(-c3cccc(OC4CCCC4)c3)cn2)n1 | 132

Row | Structure (SMILES) | melting point [°C]
51 | COc1ccc(-c2ccc(C(C)=O)cc2[N+](=O)[O-])cc1 | 124 to 126
52 | CCO/N=C1\CCc2ccccc2C1=Cc1ccc(S(C)(=O)=O)cc1 | 151 to 152
53 | CCSc1ncc(Oc2ccc(Cl)c(Cl)c2)cc1C#N | 80 to 81
54 | Nc1cnc2ccc(-c3ccccc3)cc2c1Nc1ccccc1Br | 174 to 177
55 | O=C(O)c1ccc(CCCC2SCC(=O)N2CCC2(O)CCCCC2)cc1Cl (centres undefined) | 104 to 108
56 | CCc1cc(-c2cccnc2)nn1-c1ccc(NC(=O)c2cccnc2)cc1 | 188 to 190
57 | CC(C)(C)C1OCCO1 | 86
58 | COC(=O)c1cc(C(=O)OC)cc(N2C(=O)C=CC2=O)c1 | 186 to 187
59 | COc1nc2cc(Cl)c(Cl)c(N3NN=CC3CCO)c2nc1OC (centres undefined) | 212 to 214
60 | CN1C(=O)C(c2ccc(OC(F)F)cc2)(C2CCCCC2)N=C1N (centres undefined) | 178 to 180
61 | CSc1ccc(N)c(C(=O)NCC2CCN(C(c3ccccc3)c3ccccc3)CC2)c1 | 156 to 157
62 | Cc1sc2nc(-c3ccccc3)c(-c3ccc(S(C)(=O)=O)cc3)n2c1C | 193 to 194
63 | C=C(C(=O)OC)[C@@H](O)c1ccccc1 | 48
64 | CCN(CC)c1ccc2nc3c4ccccc4c(=Nc4ccc5ccccc5n4)cc-3oc2c1 | 234 to 236
65 | CSc1cc(-c2ccc(C(F)(F)F)cc2)ccc1C#N | 128 to 129
66 | CCOC(=O)CNc1ncccc1NC(=O)c1ccc(Br)cc1 | 153 to 154
67 | CCOCCCN(C)Cc1ccc(NC(=O)C2=Cc3cc(-c4ccc(OCC)cc4)ccc3S(=O)(=O)CC2)cc1 | 197 to 198
68 | CC(C)(C)OC(=O)N1CCn2c(c(I)c(C#N)c2-c2ccccc2)C1 | 174 to 178
69 | Cc1ccc(Cn2cc(C(=O)C(=O)O)c3cc(-c4ccccc4)ccc32)cc1 | 195 to 196
70 | CC(C)(C)Nc1ccncc1NC(=S)NC1CCCCC1 | 216 to 218
71 | CC(C)=NNc1nc(Cl)c(-c2c(F)cc(F)cc2F)c(NC(C)C(F)(F)F)n1 (centres undefined) | 157 to 159
72 | CCn1cnc2c(Nc3cccc(C(F)(F)F)c3)nc(Cl)nc21 | 129 to 130
73 | CNC(=O)C1(Nc2nc(Nc3cc4c(cc3OC)CCN(CCOC)CC4)ncc2Cl)CC1 | 211 to 215
74 | O=Cc1c(-c2ccccc2F)ccc2c1OCO2 | 84 to 86
75 | CC(C)N(CCC(c1cccs1)c1ccc(O)cc1O)C(C)C (centres undefined) | 102 to 109

Row | Structure (SMILES) | melting point [°C]
76 | CC(=O)OC[C@H]1O[C@@H]2[C@@H](Sc3ccc(Cl)cc3N2CCCN(C)C)[C@@H](OC(C)=O)[C@@H]1OC(C)=O | 149 to 151
77 | O=C(CC(=O)c1ccccc1C(=O)O)c1ccc(Cl)cc1 | 148 to 150
78 | CCOC(=O)C1CSCCN1C(=O)Nc1ccc(Cl)cc1 (centres undefined) | 152 to 154
79 | COc1cccc(C(=O)c2cccc(C(=O)O)c2)c1 | 160
80 | COc1ccc(-n2nc(CBr)cc2-c2ccc(C)cc2)cc1 | 119 to 121
81 | CC(=O)OCCCCN1CCC(CNC(=O)[C@@H]2CCCN2S(=O)(=O)c2ccc(Cl)c(COc3cccc4c(-n5ccnc5)cc(C)nc34)c2Cl)CC1 | 86
82 | O=C(c1ccc(Cc2ccc(F)cc2)o1)c1oc(CO)cc(=O)c1OCc1ccccc1 | 104 to 106
83 | O=[N+]([O-])c1cc(CN2CCN(C(c3ccccc3)c3ccccc3)CC2)ccc1Cl | 102
84 | CCCc1c(OCCCCCCc2cc(OC)c(OC)cc2F)ccc(C(=O)O)c1O | 127 to 130
85 | CCc1nc2c3c(c(C(=O)N(C)C)c(-c4ccccc4)c2n1C)CCCO3 | 195 to 197
86 | COc1cc(C=O)cc(OC)c1OCc1ccc([N+](=O)[O-])cc1 | 148 to 149
87 | CCOC(=O)c1ccc(OC(=O)c2cccc(C(=O)Oc3ccc(C(=O)OCC)cc3)c2)cc1 | 123 to 125
88 | CN(CCOC1CCCCO1)c1cc(NC(=O)OC(C)(C)C)c([N+](=O)[O-])cc1C#Cc1ccc(F)cc1 (racemic) | 134
89 | O=C1C=CC(c2ccccc2)C2(c3ccccc3)CN(C(=O)Cc3ccccc3)CC12 (racemic) | 188
90 | CC(C)(C)C(NC(=O)COc1ccccc1)Nc1c(Nc2cccnc2)c(=O)c1=O (centres undefined) | 227 to 228
91 | COc1ccc(C(=O)c2c(F)cccc2F)cc1OC | 100 to 101
92 | O=C(c1cc2c(OC[C@@H](O)CN3CCC(c4ccc5ccccc5c4)CC3)cccc2[nH]1)N1CCCC1 | 158 to 161
93 | CCc1ccc2c(c1)cc(C(=O)Nc1nc(-c3c(OC)cc(C)cc3OC)n(CCC3CCCCC3)n1)n2CC(=O)OC | 191
94 | CCCCCCCCCCCCCCc1ccc(O)cc1 | 70 to 71
95 | C[C@@H](n1cnc2c(Cl)cc(Cl)cc2c1=O)[C@](O)(Cn1cncn1)c1ccc(F)cc1F | 158 to 160
96 | COc1cc(OC)cc(-c2ncoc2-c2ccc(OC(F)(F)F)c(N)c2)c1 | 119 to 120
97 | S=C(Nc1cccc(Cl)c1)N1CCCSC1c1ccc(Br)cc1 (centres undefined) | 144 to 146
98 | CC[C@@H]1CCCN1CCc1cc2cc(-c3ccc(C#N)cc3)ccc2o1 | 147
99 | CCC(C)(C)c1cc(-c2cccc(C=C3SC(N4CCOCC4)=NC3=O)c2)cc(F)c1O | 206 to 208
